Values of other authors as cited in article PMC7306898, “Concentration-Dependent Activity of Hydromethylthionine on Clinical Decline and Brain Atrophy in a Randomized Controlled Trial in Behavioral Variant Frontotemporal Dementia” (Journal of Alzheimer's Disease, 2020).
Where two headings read alike, the source gives them in different places.

Tests used:
[1] = cited from earlier work; for Plasma Half-life, Mean: value in parentheses ref U.S. approved product labeling
[2] = set-up: method as in Investigator's Brochure; conditions: coadministration of reduced leuco (LMT) form with food ref Investigator's Brochure; cited from earlier work
mitochondrial activity = system: mitochondrial activity; set-up: method as in PMID 22419586, PMID 17928358; conditions: cited from earlier work
serotonin transporter = system: serotonin transporter; set-up: method as in PMID 21542830; conditions: in vitro ref 73; cited from earlier work
TDP-43 = system: TDP-43; set-up: method as in PMID 19560462; conditions: cell models ref 34; read-out: EC50, inhibition of aggregation of TDP-43; cited from earlier work
[3] = system: subjects with mild or moderate AD; conditions: cited from earlier work
male rats = system: male rats; set-up: method as in U.S. National Toxicology Program; conditions: pancreatic islet cell adenoma and adenoma or carcinoma ref U.S. National Toxicology Program; cited from earlier work
mice = system: mice; set-up: method as in U.S. National Toxicology Program; conditions: cited from earlier work
subjects with AD = system: subjects with AD; set-up: method as in TRx-014-001; conditions: cited from earlier work
[4] = system: subjects with a clinical diagnosis within the FTLD spectrum; set-up: method as in Investigator's Brochure; conditions: MTC 138 mg/day MT, cited from earlier work
[5] = ref U.S. approved product labeling
[6] = single dose ref U.S. approved product labeling
[7] = Biphasic ref U.S. approved product labeling

Compound	Plasma Half-life, range or single value [1, 5] [h]	also measured
N[C@@H]1C[C@H]1c1ccccc1 (racemic) [Tr a n yl c yp r o mi n e, Tranylcypromine]	2.5	
Oc1ccc2c(c1)N=C(N1CCNCC1)c1cc(Cl)ccc1O2 [8-hydroxyamoxapine]	30	
CN(C)CCC=C1c2ccccc2CCc2ccccc21 [Amitriptyline]	9 to 25	
Clc1ccc2c(c1)C(N1CCNCC1)=Nc1ccccc1O2 [Amo xapine, Amoxapine]	8	
CC(NC(C)(C)C)C(=O)c1cccc(Cl)c1 (centres unmarked) [Bupropion]	12 to 30	Plasma Half-life, Mean [1]: 21 h
O=C1CC2(CCCC2)CC(=O)N1CCCCN1CCN(c2ncccn2)CC1 [Buspirone]		Plasma Half-life [1, 6]: 2 to 3 h
CN(C)CCCC1(c2ccc(F)cc2)OCc2cc(C#N)ccc21 (centres unmarked) [Citalopram]	35	increase in half-life reported in elderly [1, 5]: 30-50%
CN(C)[C@@H](CCOc1cccc2ccccc12)c1ccccc1 [Dapoxetene]		Plasma Half-life, initial [1, 7]: 1.5 h; Plasma Half-life, terminal [1, 7]: 20 h
CNCCC=C1c2ccccc2COc2ccccc21 [Des meth yldoxepin, Desmethyldoxepin]	28 to 52	
CNCCCN1c2ccccc2CCc2ccccc21 [Desipramine]	12 to 27	
CNCCCN1c2ccccc2CCc2ccc(Cl)cc21 [Desmeth ylclo mipramine, Desmethylclomipramine]	54 to 77	Plasma Half-life, Mean [1]: 69 h
CN(C)CC(c1ccc(O)cc1)C1(O)CCCCC1 (centres unmarked) [Desven la fa xin e, Desvenlafaxine]	11	
CN(C)CC/C=C1\c2ccccc2CSc2ccccc21 [Dosulepin]	19 to 33	Plasma Half-life for “its metabolites” [1, 5]: 23 to 46 h
CN(C)CCC=C1c2ccccc2COc2ccccc21 [Doxepin]	15.3	
CC(NC(C)(C)C)C(O)c1cccc(Cl)c1 (centres unmarked) [Erythrohydrobupropion]	23 to 43	Plasma Half-life, Mean [1]: 33 h
CN(C)CCC[C@@]1(c2ccc(F)cc2)OCc2cc(C#N)ccc21 [Escitalopram]	27 to 32	increase in half-life reported in elderly [1, 5]: 50%
CNCCC(Oc1ccc(C(F)(F)F)cc1)c1ccccc1 (centres unmarked) [Fluoxetine]		Plasma Half-life ([1]; Acute ref U.S. approved product labeling): 24 to 72 h; Plasma Half-life ([1]; Chronic ref U.S. approved product labeling): 96 to 140 h
COCCCC/C(=N\OCCN)c1ccc(C(F)(F)F)cc1 [Fluvoxamine]	15.6	
C[C@H]1NC(C)(C)CO[C@]1(O)c1cccc(Cl)c1 [Hydroxybupropion]	15 to 25	Plasma Half-life, Mean [1]: 20 h
CN(C)c1ccc2c(c1)Sc1cc(N(C)C)ccc1N2 [LMT, leuco-methylthioninium]		lowering of peak concentrations with food [2]: 8%
CN(C)c1ccc2nc3ccc(=[N+](C)C)cc-3sc2c1 [MT, methylthioninium]		concentrations at which mitochondrial activity is enhanced (mitochondrial activity): 10 to 100 nM; IC50 (serotonin transporter): 1.2 µM; EC50 (TDP-43): 0.05 µM
CN(C)c1ccc2nc3ccc(=[N+](C)C)cc-3sc2c1 [MTC, methylthioninium chloride]		clinically effective dose available ([3]; 100 mg MTC capsules twice or three times daily, nominal doses 152-228 mg/day ref Baddeley et al., 2015, Wischik et al.): 72 to 109 mg/day; minimum effective dose in AD ([3]; placebo-controlled dose-finding Phase II trial ref 47): 138 mg/day; carcinogenic activity (male rats): som e evi dence of carcino genic; carcinogenic activity (mice; female mice, malignant lymphoma ref U.S. National Toxicology Program): equi vocal eviden ce of; carcinogenic activity (mice; male mice, carcinoma and adenoma or carcinoma in the small intestine ref U.S. National Toxicology Program): some evidenc e of car cinogeni c activit y; methemoglobin, highest value observed (subjects with AD; Phase 2 study ref TRx-014-001): 8%; Diarrhea and related adverse events (subjects with AD; highest dose, 228 mg MT/day ref TRx-014-001): 48%; discontinuation due to urinary adverse events (subjects with AD; including urinary discoloration and staining ref TRx-014-001): 6%; discontinuation due to diarrhea and related adverse events, overall (subjects with AD; ref TRx-014-001): 16%; mean methemoglobin levels (subjects with AD; ref TRx-014-001): below 3.5%; subjects discontinued due to vomiting (subjects with AD; ref TRx-014-001): 3%; methemoglobin, mean overall (subjects with AD; those treated with MTC ref TRx-014-001): 0.8%; MMSE scores, mean above Baseline ([4]; 12 months ref Investigator's Brochure): 1.6 units; ACE-R scores improved by a mean (mean ± SEM) ([4]; 12 months, 7 subjects, LOCF ref Investigator's Brochure): 4.5 ± 2.4 units
CNCCCC12CCC(c3ccccc31)c1ccccc12 [Maprotiline]	51	

Compound	Plasma Half-life, range or single value [1, 5] [h]	also measured
CCN(CC)C(=O)C1(c2ccccc2)CC1CN (centres unmarked) [Milnacipran]	6 to 8	
O=C(NCCN1CCOCC1)c1ccc(Cl)cc1 [Moclobemide]	1 to 2	
N[C@H]1CC[C@@H](c2ccc(Cl)c(Cl)c2)c2ccccc21 [N-desmethyls ertraline, N-desmethylsertraline]	62 to 104	
CCc1nn(CCCN2CCN(c3cccc(Cl)c3)CC2)c(=O)n1CCOc1ccccc1 [Nefazodone]	2 to 4	
CNCCC=C1c2ccccc2COc2ccccc21 [Nordoxepin]	31	
NCCC(Oc1ccc(C(F)(F)F)cc1)c1ccccc1 (centres unmarked) [Norfluoxetine]		Plasma Half-life, Range [1, 5]: 96 to 384 h; Plasma Half-life, Mean [1]: 223 h
CNCCC=C1c2ccccc2CCc2ccccc21 [Nortriptyline]	16 to 93	
CN(C)CC(c1ccc(O)cc1)C1(O)CCCCC1 (centres unmarked) [O-desmeth ylvenlafaxine, O-desmethylvenlafaxine]	9 to 13	
Fc1ccc([C@@H]2CCNC[C@H]2COc2ccc3c(c2)OCO3)cc1 [P aroxetine, Paroxetine]	21	
CNCCCC1c2ccccc2C=Cc2ccccc21 [P rotriptyline, Protriptyline]	55 to 198	
NNCCc1ccccc1 [Phenelzine]		Plasma Half-life [1, 6]: 11.6 h
C#CCNC(C)Cc1ccccc1 (stereo not drawn) [R(-)-N -desmeth ylselegiline, R(-)-N-desmethylselegiline]	18 to 25	
CN[C@H](C)Cc1ccccc1 [R(-)-methamphetamine]	18 to 25	
C#CCN(C)[C@H](C)Cc1ccccc1 [Selegiline]	10	
CN[C@H]1CC[C@@H](c2ccc(Cl)c(Cl)c2)c2ccccc21 [Sertraline]	26	
C[C@H](NC(C)(C)C)[C@@H](O)c1cccc(Cl)c1 [Threohydrobupropion]	24 to 50	Plasma Half-life, Mean [1]: 37 h
CC(CN(C)C)CN1c2ccccc2CCc2ccccc21 (centres unmarked) [Tr i mi p r a mi n e, Trimipramine]	11 to 23	
O=c1n(CCCN2CCN(c3cccc(Cl)c3)CC2)nc2ccccn12 [Trazodone]		Plasma Half-life [1, 6]: 10 h
COc1ccc(C(CN(C)C)C2(O)CCCCC2)cc1 (centres unmarked) [V enlafaxine, Venlafaxine]	3 to 7	
N#Cc1ccc2[nH]cc(CCCCN3CCN(c4ccc5oc(C(N)=O)cc5c4)CC3)c2c1 [V ilazod on e, Vilazodone]	25	
CCN(CC)C(=O)[C@]1(c2ccccc2)C[C@@H]1CN [d-milnacipran]	8 to 10	
CCN(CC)C(=O)[C@@]1(c2ccccc2)C[C@H]1CN [l-enatiomer]	4 to 6	
